From patent publication US20140044759A1, “DRUG SUBSTANCES, PHARMACEUTICAL COMPOSITIONS AND METHODS FOR PREPARING THE SAME” (priority 2011, published 2014)

Columns and labels:
Type in all cases: physicochemical
[1] = BET specific surface area by nitrogen adsorption (TRISTAR 2000); details: for BET specific surface area, effect of slurry composition: external T=18 °C, FIG. 10
Description: Through these tests, it was established that drug substance Brunnauer-Emmett-Teller specific surface area (“BET specific surface area” or “BET SSA”) in a particular range is desirable to obtain desirable dissolution properties in the final product. BET specific surface area can be measured by physical adsorption methods known to one of skill in the art. All measurements described herein were made on a TRISTAR 2000 instrument (MICROMERITICS, Norcross, Ga.) using the nitrogen adsorption method, as described in Webb, P. A., “Surface Area, Porosity, and Related Physical Characteristics,” in PHARMACEUTICAL DOSAGE FORMS: TABLETS, VOLUME 3: MANUFACTURE AND PROCESS CONTROL 277-302 (eds. L. Augsburger & S. W. Hoag Informa Healthcare USA Inc. 2008). In the nitrogen absorption method, a tube containing a solid sample is preconditioned at a certain temperature for a predetermined amount of time to remove gases/vapors adsorbed on the surface of the solids. For the examples described herein, the equilibration temperature was 30° C., and the time was 16 hours. The tube is then placed into the instrument and evacuated. After evacuation, the tube is submerged into liquid nitrogen, and a known amount of nitrogen (N2) gas is introduced in the tube by means of a control valve. The N2 gas expands and fills the free volume of the tube. The pressure P of the tube will become equal to nRT/V, where n is the number of N2 gas molecules introduced in the sample tube, R is the universal gas constant, T is the absolute temperature and V is the tube free volume. By repeating the evacuation and filling procedure for different amounts of N2 gas, a BET isotherm curve can be obtained, and the BET specific surface area of the solids can be calculated from the slope of the BET curve, as described in Webb (supra).

[2] = Dissolution testing of drug product, USP Dissolution Apparatus 2 (paddle); details: 45 minutes; drug substance BET SSA 12.06 m^2/g
Experimental: The resulting drug products were subjected to dissolution testing in a USP Dissolution Apparatus 2 (DISTEK, New Brunswick, N.J.), equipped with a paddle (see United States Pharmacopeia (USP) General Chapter 711 Dissolution). 50 millimoles of phosphate buffer (pH=6.8) containing 0.1% sodium dodecyl sulphate was used. Testing was performed at physiological temperatures (37.0° C.±0.5° C.).

[3] = Bulk and tap density of drug substance powder (morphology study)
Experimental: A solution of the product of Example 1, Procedure A2 (608.5 g) dissolved in MTBE (2450 mL) was prepared. The solution was added into the mixing chamber at a rate of 840 mL/min and combined with n-heptane flowing at a rate of 3400 mL/min to form a slurry. The precipitation temperature was controlled at 20° C. After precipitation, one sample was filtered at 20° C. and a second sample was heated to 50° C. at a rate of 1° C./min. The drug substance particle morphology was examined by Scanning Electron Microscopy (SEM); images of the particles are provided as FIGS. 7A and 7B, respectively.
The difference in morphology between the two […] samples is readily apparent. The sample filtered at 20° C., shown in FIG. 7A, retained the particle morphology obtained during precipitation. The sample heated to 50° C., shown in FIG. 7B, consists of particles that are fused together; some particles look melted. The particles having different morphologies also had differences in drug substance physical attributes.

[4] = Example 8, equilibration temperature 20 °C (filtered at 20 °C)
[5] = Example 8, equilibration temperature 50 °C (heated to 50 °C at 1 °C/min)
[6] = aging process, sample: After 1% of batch distilled
[7] = aging process, sample: After 2% of batch distilled
[8] = aging process, sample: After 4% of batch distilled
[9] = aging process, sample: After 6 hours at aging temperature
[10] = aging process, sample: After distillation
[11] = aging process, sample: After precipitation
[12] = aging process, sample: Final dry cake

CC(C)(C)NC(=O)N[C@H](C(=O)N1C[C@H]2[C@@H]([C@H]1C(=O)NC(CC1CCC1)C(=O)C(N)=O)C2(C)C)C(C)(C)C (stereo partly drawn) [boceprevir, (1R,5S)—N-[3-amino-1-(cyclobutylmethyl)-2,3-dioxopropyl]-3-[2(S)-[[[(1,1-dimethylethyl)amino]carbonyl]amino]-3,3-dimethyl-1-oxobutyl]-6,6-dimethyl-3-azabicyclo[3.1.0]hexan-2(S)-carboxamide]
BET specific surface area ([1]; Example 2, laboratory scale tee mixer, slurry filtered immediately after precipitation and dried): about 94 m^2/g | BET specific surface area ([1]; Example 6, distillation profile of Table 3): 2.93 m^2/g | BET specific surface area ([1]; Example 6, distillation profile of Table 11 (25-27.0 °C)): 2.01 m^2/g | BET specific surface area ([1]; Example 7, drug substance used for the high BET SSA study): 12.06 m^2/g | BET specific surface area, powder of FIG. 7A (20 °C) compared to powder of FIG. 7B (50 °C) ([1]; Example 8): 10 times | BET SSA [1, 4]: 19.11 m^2/g | BET SSA [1, 5]: 1.82 m^2/g | final BET specific surface area as a function of equilibration temperature ([1]; Example 9, slurries from -15 °C held at external temperatures of 5 °C and 0 °C, FIG. 8): lower for the higher equilibration temperature | changes in BET specific surface area on holding at aging temperature ([1]; Example 10, aging temperature 14 °C, after 3 hours of holding, FIG. 6): very small changes | BET specific surface area, effect of slurry composition ([1]; Example 12, first slurry (low solvent/high anti-solvent)): higher drug substance BET specific surface area | BET specific surface area, effect of slurry composition ([1]; Example 12, second slurry (high solvent/low anti-solvent)): lower drug substance BET specific surface area | % Dissolved [2]: did not consistently meet or exceed a 75% dissolution criterion | bulk and tap density, powder of FIG. 7A (20 °C) compared to powder of FIG. 7B (50 °C) ([3]; Example 8): about 2 times | Bulk Density [3, 4]: 0.3087 g/mL | Tap Density [3, 4]: 0.4062 g/mL | Bulk Density [3, 5]: 0.1265 g/mL | Tap Density [3, 5]: 0.1898 g/mL

CC(C)(C)NC(=O)N[C@H](C(=O)N1C[C@H]2[C@@H]([C@H]1C(=O)NC(CC1CCC1)C(=O)C(N)=O)C2(C)C)C(C)(C)C (stereo partly shown) [Batch 2]
BET SSA [1, 6]: 7.14 m^2/g | BET SSA [1, 7]: 6.90 m^2/g | BET SSA [1, 8]: 6.88 m^2/g | BET SSA [1, 9]: 7.36 m^2/g | BET SSA [1, 10]: 6.92 m^2/g | BET SSA [1, 11]: 46.94 m^2/g | BET SSA [1, 12]: 7.61 m^2/g

CC(C)(C)NC(=O)N[C@H](C(=O)N1C[C@H]2[C@@H]([C@H]1C(=O)NC(CC1CCC1)C(=O)C(N)=O)C2(C)C)C(C)(C)C (stereo partly shown) [Batch 1]
BET SSA [1, 6]: 9.18 m^2/g | BET SSA [1, 7]: 9.13 m^2/g | BET SSA [1, 8]: 9.05 m^2/g | BET SSA [1, 9]: 9.60 m^2/g | BET SSA [1, 10]: 8.88 m^2/g | BET SSA [1, 11]: 56.70 m^2/g | BET SSA [1, 12]: 9.30 m^2/g
